pEC50: −log10 of the molar value.
Legend:
[1] = Metabolic stability in human liver microsomes, unbound intrinsic clearance; type: in vitro ADME; conditions: liver microsomes, pH 7.4; unbound intrinsic clearance (human); Clint unbound = Cl int/fu mic; read-out: Cl int, mic unb. (h)
Procedure, shortened: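 Compound at 0.5 μM incubated with human liver microsomes (0.25 mg/mL) in 0.05 M potassium phosphate pH 7.4 at 37° C, started with 1.0 mM NADPH; sampled 0–30 min, parent quantified by LC-MS/MS. First-order t1/2 gives CLint (uL/min/mg), scaled to L/h/kg; unbound CLint = CLint/fu mic.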

human 5-HT2A receptor = target: T1, human 5-HT2A receptor (Homo sapiens, UniProt P28223); assay: Human 5-HT2A functional assay (calcium mobilisation in CHO-K1 cells, FLIPR); type: cell-based; conditions: based on agonism: EC50 5-HT2A/EC50 5-HT2C
T1 construct: expressed in transfected cells; host or cells: CHO-K1
T1 sequence (P28223 whole entry): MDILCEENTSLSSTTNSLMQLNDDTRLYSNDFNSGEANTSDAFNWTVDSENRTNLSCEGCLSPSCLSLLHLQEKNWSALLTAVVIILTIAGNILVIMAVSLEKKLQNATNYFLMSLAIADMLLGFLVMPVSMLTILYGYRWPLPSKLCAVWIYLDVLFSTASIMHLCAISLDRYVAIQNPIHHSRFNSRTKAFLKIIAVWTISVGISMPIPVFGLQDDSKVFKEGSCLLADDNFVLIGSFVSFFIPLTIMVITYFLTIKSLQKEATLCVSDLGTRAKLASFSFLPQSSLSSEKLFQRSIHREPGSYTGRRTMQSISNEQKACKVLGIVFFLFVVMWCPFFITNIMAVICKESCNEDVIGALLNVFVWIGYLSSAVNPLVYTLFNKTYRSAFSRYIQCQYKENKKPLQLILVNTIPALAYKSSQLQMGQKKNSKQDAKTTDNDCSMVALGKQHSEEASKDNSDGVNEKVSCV
Procedure, shortened: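 CHO-K1 cells stably expressing human 5-HT2A, serum-starved overnight and loaded with calcium dye plus 0.07% probenecid, were given compound (10^−10 to 10^−5 M) for agonism, then serotonin at 3×10^−8 M after 8 min for antagonism. FLIPR calcium responses were normalised to serotonin maximum, and EC50/IC50 came from four-parameter fits, with Kb via Cheng–Prusoff.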

5-HT2C receptor = target: T2, 5-HT2C receptor (Homo sapiens, UniProt P28335); assay: Human 5-HT2C functional assay (beta-arrestin2 recruitment, U2OS_HTR2C_β-Arrestin cells); type: cell-based; conditions: for pEC50: Potency (EC50 5-HT2C) in functional assay, agonism, read-out: EC50 5-HT2C; for Emax: relative efficacy vs maximal effect induced by 5-HT (defined as 100%)
T2 construct: host or cells: U2OS
T2 sequence (P28335 33-458): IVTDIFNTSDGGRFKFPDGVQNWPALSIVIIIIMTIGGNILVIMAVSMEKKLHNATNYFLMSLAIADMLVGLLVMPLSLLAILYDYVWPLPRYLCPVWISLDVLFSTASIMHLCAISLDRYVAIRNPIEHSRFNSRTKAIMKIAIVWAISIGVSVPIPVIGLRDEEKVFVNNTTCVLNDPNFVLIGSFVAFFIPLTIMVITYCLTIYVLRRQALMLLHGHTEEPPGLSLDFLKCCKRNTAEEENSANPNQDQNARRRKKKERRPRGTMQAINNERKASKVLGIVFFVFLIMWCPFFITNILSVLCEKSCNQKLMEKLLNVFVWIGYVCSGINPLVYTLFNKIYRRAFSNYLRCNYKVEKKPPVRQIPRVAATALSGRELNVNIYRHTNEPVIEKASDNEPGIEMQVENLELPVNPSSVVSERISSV
T2 sequence (P32121 whole entry partner): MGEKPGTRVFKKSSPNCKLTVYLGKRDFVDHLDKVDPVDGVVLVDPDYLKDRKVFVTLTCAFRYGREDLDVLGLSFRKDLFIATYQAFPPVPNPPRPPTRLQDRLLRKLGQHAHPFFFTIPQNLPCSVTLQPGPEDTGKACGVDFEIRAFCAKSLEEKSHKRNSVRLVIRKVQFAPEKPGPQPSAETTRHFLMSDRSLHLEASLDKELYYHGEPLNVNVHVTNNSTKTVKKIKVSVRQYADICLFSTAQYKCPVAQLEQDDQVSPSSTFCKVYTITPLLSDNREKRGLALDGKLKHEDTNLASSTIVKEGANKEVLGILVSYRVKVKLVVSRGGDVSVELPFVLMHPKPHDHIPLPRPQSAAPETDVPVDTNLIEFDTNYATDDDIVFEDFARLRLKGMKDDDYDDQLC
Procedure, shortened: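 U2OS cells expressing human 5-HT2C with β-arrestin2 enzyme-fragment complementation; switched to 1% serum medium 24 h after plating, compounds added next day for 1.5 h. β-Galactosidase activity read by chemiluminescence; response expressed as percent of 10 μM 5-HT or maximal 5-HT effect (relative efficacy).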

human 5-HT2B receptor = target: T3, human 5-HT2B receptor (Homo sapiens, UniProt P41595); assay: Human 5-HT2B functional assay (calcium mobilisation in CHO-FlpIn cells, FLIPR); type: cell-based; conditions: based on agonism: EC50 5-HT2B/EC50 5-HT2C
T3 construct: expressed in transfected cells; host or cells: CHO-FlpIn
T3 sequence (P41595 whole entry): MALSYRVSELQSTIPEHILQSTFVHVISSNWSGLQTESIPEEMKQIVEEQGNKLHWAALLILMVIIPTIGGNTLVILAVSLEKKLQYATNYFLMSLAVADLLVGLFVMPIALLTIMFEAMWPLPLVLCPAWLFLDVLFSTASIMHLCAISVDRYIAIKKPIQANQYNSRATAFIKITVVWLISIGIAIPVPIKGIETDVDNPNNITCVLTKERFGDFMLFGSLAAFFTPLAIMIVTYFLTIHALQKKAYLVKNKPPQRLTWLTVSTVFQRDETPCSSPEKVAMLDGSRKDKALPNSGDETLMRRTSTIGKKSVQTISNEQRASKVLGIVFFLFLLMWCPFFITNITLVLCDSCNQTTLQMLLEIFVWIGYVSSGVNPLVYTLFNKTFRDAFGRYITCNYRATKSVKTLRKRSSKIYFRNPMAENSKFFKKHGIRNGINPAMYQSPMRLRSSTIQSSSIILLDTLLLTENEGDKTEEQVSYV
Procedure, shortened: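 CHO-FlpIn cells stably expressing human 5-HT2B, serum-starved 4 h and Ca5 dye-loaded, received compound (10^−10 to 10^−5 M) for agonism, then 10^−8 M serotonin after 8 min for antagonism; peak calcium read by FLIPR. Efficacy as % serotonin maximum; EC50/IC50 from four-parameter fits, Kb via Cheng–Prusoff.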

Structure (SMILES)	CLint scaled at 0.5 μM [1] [L/h/kg]	Selectivity over 5-HT2A (human 5-HT2A receptor)	pEC50 (5-HT2C receptor)	Emax (5-HT2C receptor) [%]	Selectivity over 5-HT2B (human 5-HT2B receptor)
COC[C@@H]1C[C@@H]2CNCCN2c2c(F)c(F)cc(C#N)c2O1.Cl [Example 28, (4aR,6S)-10,11-Difluoro-6-(methoxymethyl)-2,3,4,4a,5,6-hexahydro-1H-pyrazino[2,1-d][1,5]benzoxazepine-8-carbonitrile hydrochloride]	< 5	++ (from >30 to 100)	6.70 to 7.70	> 70	+ (from 10 to 30)
COC[C@@H]1C[C@@H]2CNCCN2c2c(F)c(OC)cc(C(F)F)c2O1.Cl [Example 29, (4aR,6S)-8-(Difluoromethyl)-11-fluoro-10-methoxy-6-(methoxymethyl)-2,3,4,4a,5,6-hexahydro-1H-pyrazino[2,1-d][1,5]benzoxazepine hydrochloride]	5 to 50	+++ (>100)	6.70 to 7.70	> 70	+++ (>100)
COC[C@@H]1C[C@@H]2CNCCN2c2ccc(C)c(F)c2O1 [Example 30, (4aR,6S)-8-Fluoro-6-(methoxymethyl)-9-methyl-2,3,4,4a,5,6-hexahydro-1H-pyrazino[2,1-d][1,5]benzoxazepine]	< 5	++ (from >30 to 100)	6.70 to 7.70	50 to 70	++ (from >30 to 100)
COC[C@@H]1C[C@@H]2CNCCN2c2cc(Cl)c(F)cc2O1.Cl [Example 31, (4aR,6S)-10-Chloro-9-fluoro-6-(methoxymethyl)-2,3,4,4a,5,6-hexahydro-1H-pyrazino[2,1-d][1,5]benzoxazepine hydrochloride]	< 5	++ (from >30 to 100)	6.70 to 7.70	30 to 50	++ (from >30 to 100)
COC[C@H]1C[C@@H]2CNCCN2c2cc(F)cc(C(F)F)c2O1.Cl [Example 32, (4aR,6R)-8-(Difluoromethyl)-10-fluoro-6-(methoxymethyl)-2,3,4,4a,5,6-hexahydro-1H-pyrazino[2,1-d][1,5]benzoxazepine hydrochloride]	< 5	++ (from >30 to 100)	6.00 to 6.70	> 70	++ (from >30 to 100)
COC[C@@H]1C[C@@H]2CNCCN2c2cc(C)cc(F)c2O1 [Example 33, (4aR,6S)-8-Fluoro-6-(methoxymethyl)-10-methyl-2,3,4,4a,5,6-hexahydro-1H-pyrazino[2,1-d][1,5]benzoxazepine]	< 5	+ (from 10 to 30)	6.00 to 6.70	50 to 70	+ (from 10 to 30)
C#Cc1cc(F)cc2c1O[C@H](COC)C[C@@H]1CNCCN21.Cl [Example 34, (4aR,6S)-8-Ethynyl-10-fluoro-6-(methoxymethyl)-2,3,4,4a,5,6-hexahydro-1H-pyrazino[2,1-d][1,5]benzoxazepine hydrochloride]	< 5	+++ (>100)	> 7.70	> 70	+ (from 10 to 30)
COC[C@H]1C[C@@H]2CNCCN2c2cc(F)cc(Cl)c2O1.Cl [Example 35, (4aR,6R)-8-Chloro-10-fluoro-6-(methoxymethyl)-2,3,4,4a,5,6-hexahydro-1H-pyrazino[2,1-d][1,5]benzoxazepine hydrochloride]	< 5	++ (from >30 to 100)	6.70 to 7.70	> 70	+ (from 10 to 30)
C#Cc1cc(F)c2c(c1)N1CCNC[C@H]1C[C@@H](COC)O2.O=C(O)C(O)C(O)C(=O)O [Example 36, (4aR,6S)-10-Ethynyl-8-fluoro-6-(methoxymethyl)-2,3,4,4a,5,6-hexahydro-1H-pyrazino[2,1-d][1,5]benzoxazepine; (2R,3R)-2,3-dihydroxybutanedioic acid]	5 to 50	+ (from 10 to 30)	6.00 to 6.70	50 to 70	+ (from 10 to 30)
COC[C@H]1C[C@@H]2CNCCN2c2c(F)c(F)cc(Cl)c2O1.Cl [Example 37, (4aR,6R)-8-Chloro-10,11-difluoro-6-(methoxymethyl)-2,3,4,4a,5,6-hexahydro-1H-pyrazino[2,1-d][1,5]benzoxazepine hydrochloride]	< 5	+ (from 10 to 30)	6.00 to 6.70	30 to 50	+ (from 10 to 30)
COC[C@@H]1C[C@@H]2CNCCN2c2cc(F)c(F)c(Cl)c2O1.Cl [Example 38, (4aR,6S)-8-Chloro-9,10-difluoro-6-(methoxymethyl)-2,3,4,4a,5,6-hexahydro-1H-pyrazino[2,1-d][1,5]benzoxazepine hydrochloride]	< 5	++ (from >30 to 100)	> 7.70	> 70	++ (from >30 to 100)
Cc1ccc2c(c1F)O[C@H](CO)C[C@@H]1CNCCN21 [Example 39, [(4aR,6S)-8-Fluoro-9-methyl-2,3,4,4a,5,6-hexahydro-1H-pyrazino[2,1-d][1,5]benzoxazepin-6-yl]methanol]	< 5	++ (from >30 to 100)	6.70 to 7.70	50 to 70	++ (from >30 to 100)
C#Cc1cc(F)c(F)c2c1O[C@H](COC)C[C@@H]1CNCCN21.Cl [Example 40, (4aR,6S)-8-Ethynyl-10,11-difluoro-6-(methoxymethyl)-2,3,4,4a,5,6-hexahydro-1H-pyrazino[2,1-d][1,5]benzoxazepine hydrochloride]	< 5	+++ (>100)	> 7.70	> 70	+ (from 10 to 30)
COC[C@@H]1C[C@@H]2CNCCN2c2cc(C(F)(F)F)cc(Cl)c2O1 [Example 45, (4aR,6S)-8-Chloro-6-(methoxymethyl)-10-(trifluoromethyl)-2,3,4,4a,5,6-hexahydro-1H-pyrazino[2,1-d][1,5]benzoxazepine]	5 to 50	+++ (>100)	6.70 to 7.70	> 70	+++ (>100)
COC[C@@H]1C[C@@H]2CNCCN2c2c(cc(F)c(F)c2F)O1.Cl [Example 47, (4aR,6S)-9,10,11-Trifluoro-6-(methoxymethyl)-2,3,4,4a,5,6-hexahydro-1H-pyrazino[2,1-d][1,5]benzoxazepine hydrochloride]	< 5	+++ (>100)	6.70 to 7.70	> 70	+++ (>100)
COC[C@@H]1C[C@@H]2CNCCN2c2ccc(F)cc2O1.Cl [Example 51, (4aR,6S)-9-Fluoro-6-(methoxymethyl)-2,3,4,4a,5,6-hexahydro-1H-pyrazino[2,1-d][1,5]benzoxazepine hydrochloride]	< 5	+ (from 10 to 30)	6.00 to 6.70	50 to 70	++ (from >30 to 100)
COC[C@@H]1C[C@@H]2CNCCN2c2cc(Cl)cc(Cl)c2O1 [Example 52, (4aR,6S)-8,10-Dichloro-6-(methoxymethyl)-2,3,4,4a,5,6-hexahydro-1H-pyrazino[2,1-d][1,5]benzoxazepine]	< 5	+++ (>100)	6.70 to 7.70	> 70	++ (from >30 to 100)

Reference: patent publication US20200002354A1, “HEXAHYDROPYRAZINOBENZ- OR -PYRIDO-OXAZEPINES CARRYING AN OXYGEN-CONTAINING SUBSTITUENT AND USE THEREOF IN THE TREATMENT OF 5-HT2C-DEPENDENT DISORDERS” (AbbVie Deutschland GmbH & Co. KG, priority 2015, published 2020)
